ChEMBL document CHEMBL5036347, “Design of the naphthyl-diarylpyrimidines as potent non-nucleoside reverse transcriptase inhibitors (NNRTIs) via structure-based extension into the entrance channel” (Eur J Med Chem, 2021)
In brackets after ≈: the same amount, converted by molar mass.

What was measured:
[1] = tested on: Human immunodeficiency virus 1; assay: Anti-HIV activity against HIV-1 IIIB infected in human MT4 cells assessed as reduction in virus-induced cytopathic effect incubated for 5 days by MTT assay; format: functional, organism-based; details: Human immunodeficiency virus 1, IIIB, MT4, 120 h
[2] = tested on: Human immunodeficiency virus 2; assay: Anti-HIV activity against HIV2 ROD infected in human MT4 cells assessed as reduction in virus-induced cytopathic effect incubated for 5 days by MTT assay; format: functional, organism-based; details: Human immunodeficiency virus 2, ROD, MT4, 120 h
[3] = Cytotoxicity against human MT4 cells assessed as reduction in cell viability incubated for 5 days by MTT assay; format: cell-based; details: human, MT4 cells; time 5 day
[4] = tested on: Human immunodeficiency virus 1; assay: Antiviral activity against HIV1 harboring reverse transcriptase L100I mutant infected in human MT4 cells assessed as protection against virus-induced cytopathic effect incubated for 5 days by MTT assay; format: functional, organism-based; details: Human immunodeficiency virus 1, MT4, 120 h
[5] = tested on: Human immunodeficiency virus 1; assay: Antiviral activity against HIV1 harboring reverse transcriptase K103N mutant infected in human MT4 cells assessed as protection against virus-induced cytopathic effect incubated for 5 days by MTT assay; format: functional, organism-based; details: Human immunodeficiency virus 1, MT4, 120 h
[6] = tested on: Human immunodeficiency virus 1; assay: Antiviral activity against HIV1 harboring reverse transcriptase Y181C mutant infected in human MT4 cells assessed as protection against virus-induced cytopathic effect incubated for 5 days by MTT assay; format: functional, organism-based; details: Human immunodeficiency virus 1, MT4, 120 h
[7] = tested on: Human immunodeficiency virus 1; assay: Antiviral activity against HIV1 harboring reverse transcriptase Y188L mutant infected in human MT4 cells assessed as protection against virus-induced cytopathic effect incubated for 5 days by MTT assay; format: functional, organism-based; details: Human immunodeficiency virus 1, MT4, 120 h
[8] = tested on: Human immunodeficiency virus 1; assay: Antiviral activity against HIV1 harboring reverse transcriptase E138K mutant infected in human MT4 cells assessed as protection against virus-induced cytopathic effect incubated for 5 days by MTT assay; format: functional, organism-based; details: Human immunodeficiency virus 1, MT4, 120 h
[9] = tested on: Human immunodeficiency virus 1; assay: Antiviral activity against HIV1 harboring reverse transcriptase F227L/V106A mutant infected in human MT4 cells assessed as protection against virus-induced cytopathic effect incubated for 5 days by MTT assay; format: functional, organism-based; details: Human immunodeficiency virus 1, MT4, 120 h
[10] = Resistance fold, ratio of EC50 for HIV1 harboring reverse transcriptase Y181C mutant […] to EC50 for wild type HIV1 […]; format: functional
[11] = Resistance fold, ratio of EC50 for HIV1 harboring reverse transcriptase L100I mutant […] to EC50 for wild type HIV1 […]; format: functional
[12] = Resistance fold, ratio of EC50 for HIV1 harboring reverse transcriptase K103N mutant […] to EC50 for wild type HIV1 […]; format: functional
[13] = tested on: Human immunodeficiency virus 1; assay: Antiviral activity against HIV1 harboring reverse transcriptase K103N/Y181C double mutant infected in human MT4 cells assessed as protection against virus-induced cytopathic effect incubated for 5 days by MTT assay; format: functional, organism-based; details: Human immunodeficiency virus 1, MT4, 120 h
[14] = Selectivity index, ratio of CC50 for cytotoxicity against human MT4 cells to EC50 of Anti-HIV activity against HIV-1 IIIB infected in human MT4; format: toxicity, cell-based; details: read-out: Selectivity Index
[15] = target: Human immunodeficiency virus type 1 reverse transcriptase (Human immunodeficiency virus 1, UniProt Q72547, K103N/Y181C); assay: Inhibition of HIV1 reverse transcriptase K103N/Y181C double mutant using oligo(dT)16 as primer measured after 40 mins by picogreen-dye based spectrofluorimetric analysis
[16] = Resistance fold, ratio of EC50 for HIV1 harboring reverse transcriptase Y188L mutant […] to EC50 for wild type HIV1 […]; format: functional
[17] = Resistance fold, ratio of EC50 for HIV1 harboring reverse transcriptase E138K mutant […] to EC50 for wild type HIV1 […]; format: functional
[18] = Resistance fold, ratio of EC50 for HIV1 harboring reverse transcriptase F227L/V106A double mutant […] to EC50 for wild type HIV1 […]; format: functional
[19] = Resistance fold, ratio of EC50 for HIV1 harboring reverse transcriptase K103N/Y181C double mutant […] to EC50 for wild type HIV1 […]; format: functional
[20] = target: Human immunodeficiency virus type 1 reverse transcriptase (Human immunodeficiency virus 1, UniProt Q72547); assay: Inhibition of wild type HIV1 reverse transcriptase using oligo(dT)16 as primer measured after 40 mins by picogreen-dye based spectrofluorimetric analysis
[21] = target: Human immunodeficiency virus type 1 reverse transcriptase (Human immunodeficiency virus 1, UniProt Q72547, L100I); assay: Inhibition of HIV1 reverse transcriptase L100I mutant using oligo(dT)16 as primer measured after 40 mins by picogreen-dye based spectrofluorimetric analysis
[22] = target: Human immunodeficiency virus type 1 reverse transcriptase (Human immunodeficiency virus 1, UniProt Q72547, K103N); assay: Inhibition of HIV1 reverse transcriptase K103N mutant using oligo(dT)16 as primer measured after 40 mins by picogreen-dye based spectrofluorimetric analysis
[23] = target: Human immunodeficiency virus type 1 reverse transcriptase (Human immunodeficiency virus 1, UniProt Q72547, Y181C); assay: Inhibition of HIV1 reverse transcriptase Y181C mutant using oligo(dT)16 as primer measured after 40 mins by picogreen-dye based spectrofluorimetric analysis
[24] = target: Human immunodeficiency virus type 1 reverse transcriptase (Human immunodeficiency virus 1, UniProt Q72547, Y188L); assay: Inhibition of HIV1 reverse transcriptase Y188L mutant using oligo(dT)16 as primer measured after 40 mins by picogreen-dye based spectrofluorimetric analysis
[25] = target: Human immunodeficiency virus type 1 reverse transcriptase (Human immunodeficiency virus 1, UniProt Q72547, E138K); assay: Inhibition of HIV1 reverse transcriptase E138K mutant using oligo(dT)16 as primer measured after 40 mins by picogreen-dye based spectrofluorimetric analysis
[26] = target: Human immunodeficiency virus type 1 reverse transcriptase (Human immunodeficiency virus 1, UniProt Q72547, F227L/V106A); assay: Inhibition of HIV1 reverse transcriptase F227L/V106A double mutant using oligo(dT)16 as primer measured after 40 mins by picogreen-dye based spectrofluorimetric analysis
[27] = Water solubility of compound at pH 2 at 0.1 to 10 mg by HPLC-UV analysis; format: physicochemical; details: dose 0.1-10 mg
[28] = Water solubility of compound at pH 7 at 0.1 to 10 mg by HPLC-UV analysis; format: physicochemical; details: dose 0.1-10 mg
[29] = Water solubility of compound at pH 7.4 at 0.1 to 10 mg by HPLC-UV analysis; format: physicochemical; details: dose 0.1-10 mg

Structure (SMILES): CCNc1cc(Oc2c(OC)cc3cc(C#N)ccc3c2OC)nc(Nc2ccc(C#N)cc2)n1
- EC50 [1]: 0.0091 µM
- EC50 [2]: > 1000 µM
- CC50 at 120 h [3]: > 125 µM
- EC50 [4]: 0.13 µM
- EC50 [5]: 0.0088 µM
- EC50 [6]: 0.061 µM
- EC50 [7]: 0.58 µM
- EC50 [8]: 0.016 µM
- EC50 [9]: 4.21 µM
- Ratio EC50 [10]: 7
- Ratio EC50 [11]: 14
- Ratio EC50 [12]: 1
- EC50 [13]: 0.42 µM
- selectivity ratio [14]: > 30500
- IC50 [15]: 0.43 µM
- Ratio EC50 [16]: 64
- Ratio EC50 [17]: 2
- Ratio EC50 [18]: 463
- Ratio EC50 [19]: 46
- IC50 [20]: 0.06 µM
- IC50 [21]: 1.31 µM
- IC50 [22]: 0.12 µM
- IC50 [23]: 0.16 µM
- IC50 [24]: 2.32 µM
- IC50 [25]: 0.09 µM
- IC50 [26]: 1.16 µM
- solubility [27]: 1 µg/mL (≈ 2.14 µM)
- solubility [28]: < 1 µg/mL
- solubility [29]: 9 µg/mL (≈ 19.3 µM)

Structure (SMILES): COc1cc2cc(C#N)ccc2c(OC)c1Oc1cc(N)nc(Nc2ccc(C#N)cc2)n1
- EC50 [1]: 0.0054 µM
- EC50 [2]: 7.28 µM
- CC50 at 120 h [3]: 19 µM
- EC50 [4]: 0.038 µM
- EC50 [5]: 0.0053 µM
- EC50 [6]: 0.016 µM
- EC50 [7]: 0.176 µM
- EC50 [8]: 0.014 µM
- EC50 [9]: 0.33 µM
- Ratio EC50 [10]: 3
- Ratio EC50 [11]: 7
- Ratio EC50 [12]: 1
- EC50 [13]: 0.03 µM
- selectivity ratio [14]: 3500
- IC50 [15]: 0.06 µM
- Ratio EC50 [16]: 33
- Ratio EC50 [17]: 3
- Ratio EC50 [18]: 61
- Ratio EC50 [19]: 6
- IC50 [20]: 0.02 µM
- IC50 [21]: 0.07 µM
- IC50 [22]: 0.04 µM
- IC50 [23]: 0.04 µM
- IC50 [24]: 0.15 µM
- IC50 [25]: 0.02 µM
- IC50 [26]: 0.12 µM
- solubility [27]: < 1 µg/mL
- solubility [28]: < 1 µg/mL
- solubility [29]: 1 µg/mL (≈ 2.28 µM)

Structure (SMILES): COc1cc2cc(C#N)ccc2c(OC)c1Oc1cc(NC2CCCC2)nc(Nc2ccc(C#N)cc2)n1
- IC50 [1]: 0.048 µM
- EC50 [2]: > 1000 µM
- CC50 at 120 h [3]: > 125 µM
- IC50 [4]: 3.69 µM
- EC50 [5]: 0.055 µM
- EC50 [6]: 0.53 µM
- EC50 [7]: 7.53 µM
- EC50 [8]: 0.23 µM
- EC50 [9]: 131 µM
- Ratio EC50 [10]: 11
- Ratio EC50 [11]: 77
- Ratio EC50 [12]: 1
- EC50 [13]: 6.6 µM
- selectivity ratio [14]: > 5170
- Ratio EC50 [16]: 158
- Ratio EC50 [17]: 5
- Ratio EC50 [18]: 2742
- Ratio EC50 [19]: 138
- IC50 [20]: 0.21 µM

Structure (SMILES): COc1cc2cc(C#N)ccc2c(OC)c1Oc1cc(N2CCC(O)C2)nc(Nc2ccc(C#N)cc2)n1 (centres undefined)
- EC50 [1]: 0.011 µM
- EC50 [2]: 9.12 µM
- CC50 at 120 h [3]: > 125 µM
- EC50 [4]: 0.12 µM
- EC50 [5]: 0.019 µM
- EC50 [6]: 0.048 µM
- EC50 [7]: 0.4 µM
- EC50 [8]: 0.045 µM
- EC50 [9]: 1.33 µM
- Ratio EC50 [10]: 4
- Ratio EC50 [11]: 11
- Ratio EC50 [12]: 2
- EC50 [13]: 0.81 µM
- selectivity ratio [14]: 22800
- IC50 [15]: 0.45 µM
- Ratio EC50 [16]: 38
- Ratio EC50 [17]: 4
- Ratio EC50 [18]: 124
- Ratio EC50 [19]: 76
- IC50 [20]: 0.1 µM
- IC50 [21]: 0.49 µM
- IC50 [22]: 0.24 µM
- IC50 [23]: 0.18 µM
- IC50 [24]: 1.06 µM
- IC50 [25]: 0.15 µM
- IC50 [26]: 0.88 µM
- solubility [27]: 1 µg/mL (≈ 1.97 µM)
- solubility [28]: < 1 µg/mL
- solubility [29]: 2 µg/mL (≈ 3.93 µM)

Structure (SMILES): COc1cc2cc(C#N)ccc2c(OC)c1Oc1cc(NCCCCO)nc(Nc2ccc(C#N)cc2)n1
- EC50 [1]: 0.018 µM
- EC50 [2]: 4.93 µM
- CC50 at 120 h [3]: 39.1 µM
- EC50 [4]: 0.3 µM
- EC50 [5]: 0.02 µM
- EC50 [6]: 0.19 µM
- EC50 [7]: 0.74 µM
- EC50 [8]: 0.047 µM
- EC50 [9]: 2.81 µM
- Ratio EC50 [10]: 11
- Ratio EC50 [11]: 17
- Ratio EC50 [12]: 1
- EC50 [13]: 0.55 µM
- selectivity ratio [14]: 2190
- Ratio EC50 [16]: 41
- Ratio EC50 [17]: 3
- Ratio EC50 [18]: 158
- Ratio EC50 [19]: 31
- IC50 [20]: 0.08 µM

Structure (SMILES): COc1cc2cc(C#N)ccc2c(OC)c1Oc1cc(NCC(O)CO)nc(Nc2ccc(C#N)cc2)n1 (centres undefined)
- EC50 [1]: 0.1 µM
- EC50 [2]: > 1000 µM
- CC50 at 120 h [3]: 29.5 µM
- EC50 [4]: 1.04 µM
- EC50 [5]: 0.093 µM
- EC50 [6]: 0.73 µM
- EC50 [7]: 1.26 µM
- EC50 [8]: 0.28 µM
- EC50 [9]: 3.11 µM
- Ratio EC50 [10]: 7
- Ratio EC50 [11]: 17
- Ratio EC50 [12]: 1
- EC50 [13]: 0.93 µM
- selectivity ratio [14]: 293
- Ratio EC50 [16]: 13
- Ratio EC50 [17]: 3
- Ratio EC50 [18]: 31
- Ratio EC50 [19]: 9
- IC50 [20]: 0.08 µM
